Laboratory results taken from paper PMC12238850, “Molecular determinants for recognition of serotonylated chromatin” (Nucleic Acids Research, 2025).
Where a chain is given by its changes, count along the chain named. Like-named read-outs stand apart in the source and are kept apart here.

Columns and labels:
[1] = target: T1, Taf3-PHD (residues 857–924) (Mus musculus, UniProt Q5HZG4); assay: NMR titration line shape analysis (TITAN), wild-type Taf3-PHD; type: binding
T1 construct: PHD finger of Taf3 (residues 857–924) in NMR buffer; GST (N, cleaved yes); made in house; host or cells: E. coli BL21(DE3), M9 minimal medium (13C/15N)
T1 sequence (Q5HZG4 857-924): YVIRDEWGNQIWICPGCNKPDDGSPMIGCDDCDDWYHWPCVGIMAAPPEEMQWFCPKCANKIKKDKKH
Experimental: (§1) The ^13C- and ^15N-labelled Taf3-PHD NMR samples were purified as described above, with minor differences. A single colony of freshly transformed BL21(DE3) E. coli was grown in a synthetic M9 minimal medium (6.0 g/l Na2HPO4·2H2O, 3.0 g/l KH2PO4, 0.5 g/l NaCl, 25 mg/l MgSO4, 290 μg/l CaCl2, 1 μg/l FeSO4·7H2O, 270 μg/l ZnCl2, and 5 mg/l thiamine) containing 2.0 g/l ^13C-glucose as the only carbon source and 0.5 g/l ^15NH4Cl as the sole nitrogen source. Protein expression, lysis, and loading to Glutathione Sepharose™ column were performed as described above. The GST-tag was removed through on-column thrombin digestion by loading excess thrombin (SERVA) in wash buffer followed by overnight digestion at 4°C. The cleaved PHD moiety with a […] N-terminal extension (Gly–Ser–His–Met–Ala–Met–Ala) remaining from the thrombin cleavage site was collected from the flow-through and further purified in a Mono Q™ 10/100 GL as before and subsequently loaded to a Superdex-75 HiLoad 16/600 gel filtration column in NMR buffer (20 mM KPi, pH 7.0, 150 mM KCl, 10 μM ZnCl2) (Supplementary Fig. S1).
(§2) All data were recorded at 298 K on a Bruker Avance III HD 900 MHz spectrometer equipped with a cryoprobe, unless noted otherwise. Sample for assignment verification contained 0.3 mM ^13C- and ^15N-labelled PHD finger of Taf3 (residues 857–924) in NMR buffer (20 mM KPi, pH 7.0, 150 mM KCl, 10 μM ZnCl2, 0.01% NaN3, 10% D2O) in a 5-mm NMR tube. Samples for peptide interaction studies contained 0.19 mM ^13C- and ^15N-labelled PHD in NMR buffer in 3-mm NMR tubes. Lyophilized peptides were dissolved in NMR buffer including 1 mM sodium 3-(trimethylsilyl)tetradeuteriopropanionate (TSP) into 20 mM stock solutions. Upon dilution to 1 mM, all peptide solutions were at pH 7.0 in NMR buffer. Peptide concentrations were determined by comparing the integral of the Thr methyl signal (from T3, T6, and T11, total nine protons) to that of TSP using a quantitative 1D experiment (recycle delay 60 s) recorded at a Bruker Avance III 600 MHz spectrometer. Saturated complexes with H3K4me1/H3K4me2/H3K4me3 peptides with and without H3Q5ser were made by adding peptide to a 0.7 mM final concentration (3.6 equiv.). […] Additional samples were prepared using 30%, 50%, 80%, and 160% equiv. of peptide. All spectra were recorded and processed using Bruker Topspin and analysed using NMR-FAM Sparky and Poky.
For the H3K4me2 complexes, the resonance of G879 was excluded due to overlap and that of K875 was included. Spectra were processed using NMRPipe using exponential line broadening of 10/15 Hz in the direct/indirect dimension of the free induction decay before Fourier transform. Data were fit against a 1:1 binding model that also optimizes the ligand concentration to compensate for concentration errors. Fitting assumed an HSQC experiment using 1.2 ms for the first zz-filter delays and an additional 0.6 ms evolution at the start and end of t1 that accommodated the echo/anti-echo gradient. The average koff value and standard error from a bootstrap analysis based on 100 replicas are reported. The 95% confidence limits were estimated using a grid search fixing koff allowing for an ∼3% increase in the final residuals as based on the F-statistic given the degrees of freedom. For each koff value, the KD for the H3K4me3 peptide was restrained to fall within 100 and 400 nM to enforce compatibility to previous reported affinity to avoid unrealistically high fitted KD values at higher koff values. Of note, the quality of the fit at the confidence limit edges is visibly worse than the best fit, particularly for the high koff side. For the H3K4me3Q5ser peptide, no restraint on KD was necessary. For the H3K4me2 peptides, the KD was restrained to 5 μM maximum. Without these upper bounds for KD, slightly wider confidence limits for koff are found.

[2] = target: T2, Taf3-PHD P881E–W894F (Mus musculus, UniProt Q5HZG4, P881E/W894F); assay: NMR titration line shape analysis (TITAN), double mutant Taf3-PHD; type: binding
T2 construct: Mus musculus Taf3-PHD domain (residues 857–924); GST (N, cleaved yes); made in house; host or cells: E. coli BL21(DE3), M9 minimal medium (13C/15N)
T2 sequence (Q5HZG4 857-924 P881E/W894F): T1 sequence (Q5HZG4 857-924) with P25E, W38F
Experimental: as §1, §2
For the H3K4me2 complexes, the resonance of G879 was excluded due to overlap and that of K875 was included. Spectra were processed using NMRPipe using exponential line broadening of 10/15 Hz in the direct/indirect dimension of the free induction decay before Fourier transform. Data were fit against a 1:1 binding model that also optimizes the ligand concentration to compensate for concentration errors. […]

Compound	koff ([1]; pH 7) [s⁻¹]	koff ([1]; pH 7, read-out: koff 95% confidence limits) [s⁻¹]	koff [2] [s⁻¹]	koff ([2]; read-out: koff 95% confidence limits) [s⁻¹]	koff ([1]; NMR line shape fit (TITAN), 298 K, 20 mM KPi, pH 7.0, 150 mM KCl, 1:1 model, average ± standard error from bootstrap, 100 replicas, read-out: koff) [s⁻¹]	koff ([1]; NMR line shape fit (TITAN), 298 K, pH 7.0, grid search, read-out: koff 95% confidence limits) [s⁻¹]	koff ([2]; NMR line shape fit (TITAN), P881E–W894F mutant, average ± standard error from bootstrap, read-out: koff) [s⁻¹]	koff ([2]; NMR line shape fit (TITAN), P881E–W894F mutant, read-out: koff 95% confidence limits) [s⁻¹]
C[C@H](N)C(=O)N[C@@H](CCCNC(=N)N)C(=O)N[C@H](C(=O)N[C@@H](CCCC[N+](C)(C)C)C(=O)N[C@@H](CCC(=O)NCCc1c[nH]c2ccc(O)cc12)C(=O)N[C@H](C(=O)N[C@@H](C)C(=O)N[C@@H](CCCNC(=N)N)C(=O)N[C@@H](CCCCN)C(=O)N[C@@H](CO)C(=O)N[C@H](C(=O)NCC(N)=O)[C@@H](C)O)[C@@H](C)O)[C@@H](C)O [H3K4me3Q5ser]	16.8 ± 0.5	12 to 22	24.2 ± 0.9	18 to 33	–	–	–	–
C[C@H](N)C(=O)N[C@@H](CCCNC(=N)N)C(=O)N[C@H](C(=O)N[C@@H](CCCC[N+](C)(C)C)C(=O)N[C@@H](CCC(N)=O)C(=O)N[C@H](C(=O)N[C@@H](C)C(=O)N[C@@H](CCCNC(=N)N)C(=O)N[C@@H](CCCCN)C(=O)N[C@@H](CO)C(=O)N[C@H](C(=O)NCC(N)=O)[C@@H](C)O)[C@@H](C)O)[C@@H](C)O [H3K4me3]	–	–	–	–	48.8 ± 1	42 to 56	29.6 ± 0.9	22 to 40
